Test results: publication PMC12156997, “Dihydromyricetin May Attenuate Skin Aging as a RAGE Inhibitor” (Nutrients, 2025)

Assays:
[1] = molecular target: T1, RAGE (receptor for advanced glycation end products) (Homo sapiens, UniProt Q15109); assay: SPR (Biacore 1S+, CM5 chip, RAGE immobilized, multi-cycle kinetics); format: binding
T1 construct: gene AGER

[2] = molecular target: T1, RAGE (receptor for advanced glycation end products); assay: SPR (Biacore 1S+, CM5 chip, RAGE immobilized, multi-cycle kinetics); known RAGE inhibitor as reference; format: binding

T1 sequence (Q15109 23-344): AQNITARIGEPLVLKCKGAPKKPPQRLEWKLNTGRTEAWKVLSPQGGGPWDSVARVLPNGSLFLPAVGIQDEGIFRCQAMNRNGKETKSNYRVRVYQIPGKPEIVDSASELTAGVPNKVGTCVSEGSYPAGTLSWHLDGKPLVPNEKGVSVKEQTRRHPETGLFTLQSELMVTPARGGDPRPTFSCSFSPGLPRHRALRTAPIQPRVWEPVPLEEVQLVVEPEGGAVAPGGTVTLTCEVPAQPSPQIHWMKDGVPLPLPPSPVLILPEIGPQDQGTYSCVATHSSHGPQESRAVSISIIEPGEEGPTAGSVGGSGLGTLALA

SMILES | Kd [1] [µM] | Kd [2] [µM]
O=C1c2c(O)cc(O)cc2O[C@H](c2cc(O)c(O)c(O)c2)[C@H]1O [DHM, Dihydromyricetin] | 28.7 | 
O=C(c1ccc(Cl)cc1)N(Cc1ccccc1)C1CCCCC1 [FPS-ZM1] |  | 40.7
